Measurements as given in paper PMC6929975, “A supramolecular protein chaperone for vaccine delivery” (Theranostics, 2020).
Starred links: 1 amine or outer side, 2 acyl side, 3 side chain; linkers in the order of their positions; H or OH if unused. Non-standard residues stand in square brackets, D forms with d. Residues, ends and D or L forms follow the SMILES beside them. Groups on a side chain read outwards from the residue. *: point of attachment. γGlu = O=C(O)[C@H](CCC(=O)[*:2])N[*:1]; X1 = CC(C(=O)*)c1ccc(-c2ccccc2)c(F)c1

Columns and labels:
[1] = molecular target: T1, ovalbumin (OVA) (Gallus gallus, UniProt P01012); experiment: Microscale thermophoresis (MST) binding to OVA; conditions: Monolith NT.115, NT-647-labelled protein, PBS with 0.05% Tween-20, pH 7.4, Comp. 0.25 μM to 10 mM
T1 construct: purchased InvivoGen
T1 sequence (P01012 1-386): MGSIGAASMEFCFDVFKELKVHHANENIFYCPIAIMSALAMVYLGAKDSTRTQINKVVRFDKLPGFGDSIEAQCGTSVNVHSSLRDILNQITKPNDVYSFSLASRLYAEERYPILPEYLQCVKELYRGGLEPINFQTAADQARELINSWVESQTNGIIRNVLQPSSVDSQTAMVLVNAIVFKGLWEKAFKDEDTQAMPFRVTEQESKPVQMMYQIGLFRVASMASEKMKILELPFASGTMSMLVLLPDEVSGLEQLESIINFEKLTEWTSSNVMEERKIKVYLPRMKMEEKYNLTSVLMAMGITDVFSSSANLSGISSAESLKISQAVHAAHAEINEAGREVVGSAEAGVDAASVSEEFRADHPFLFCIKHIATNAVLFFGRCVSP
Text: For the interaction experiments of fluorescent-proteins with Comp. […] 1 or 2 at 1:1 volume ratio.

[2] = Antigen release assay (OVA release from hydrogel); type: physicochemical; conditions: physically encapsulated OVA, 0.2 wt% gel, 150 μL, 30 μg OVA-RBITC, PBS pH 7.4, 37 °C, absorbance 560 nm
Method: The released profiles of OVA-RBITC from Vac-1 and Vac-2 in vitro were studied at 37 °C. 150 μL of Vac-1 or Vac-2 (0.2 wt%) containing 30 μg of OVA-RBITC was used for the measurement. 150 μL PBS solution (pH = 7.4) was firstly added on top of the gel, 100 μL of solution was taken out at the desired time point and 100 μL of fresh PBS solutions was added back. The absorbance of OVA-RBITC was determined at 560 nm by a microplate reader (BioTek Synergy 4) to calculate the cumulative release rate of OVA-RBITC from hydrogel vaccines.

[3] = Dissolution and protein-induced hydrogelation / gel stability; type: physicochemical; conditions: coassembled hydrogel with OVA, room temperature (20-25 °C)
Method: 2.5 mg of compounds were dispersed in endotoxin-free PBS buffer solution (pH = 7.4) at a final concentration of 0.5 wt% with sodium carbonate to adjust the final pH to 7.4. Proteins were dispersed in endotoxin-free PBS buffer solution (pH = 7.4) at a final concentration of 10 μg/μL. The proteins were then evenly dispersed in the hydrogel by vortexing. The mixtures were maintained at 37°C for half hour and hydrogel then formed. The final concentration of the protein in the hydrogel was 500 μg/mL.
We then tested the coassembly property of Comp. 1 with the model protein antigen ovalbumin (OVA). Comp. […] After adding OVA to the solution (final protein concentration = 0.05 wt%), we observed rapid hydrogelation within 10 minutes (Figure 1C). The resulting hydrogel was stable for more than 3 months at room temperature (20-25 °C). The maximum proportion of the nanofibers composed of OVA was 50% for Comp. 1 (Figure S5 and S6).

[4] = tested on: Raw 264.7 mouse macrophages; conditions: 80 µg/mL
[5] = tested on: splenocytes; conditions: 80 µg/mL

Fbp-G^DF^DF^DY [Comp. 2]
binding affinity for OVA, in words [1]: no measurable binding affinity
cumulative OVA release within 16 hours [2]: ~100%

CC(C(=O)NCC(=O)N[C@H](Cc1ccccc1)C(=O)N[C@H](Cc1ccccc1)C(=O)N[C@H](Cc1ccc(O)cc1)C(=O)N[C@H](CCCCNC(=O)CC[C@H](NC(=O)CC[C@H](N)C(=O)O)C(=O)O)C(N)=O)c1ccc(-c2ccccc2)c(F)c1 (some centres unmarked) [Comp. 1, Fbp-G^DF^DF^DY^DK(γE)2-NH2] (X1-G[dF][dF][dY][dK]([γGlu-γGlu])-NH2)
stability of the resulting hydrogel [3]: more than 3 months
cell viability, Raw 264.7 [4]: did not remarkably reduce the cell viability
cell viability, splenocytes [5]: did not remarkably reduce the cell viability
